SMILES strings stand for the structures.

In one test the target is T1, recombinant human iPLA2γ (Homo sapiens, UniProt Q9NP80).
T1 construct: Recombinant full-length iPLA2γ was expressed in Sf9 cells; made in house; host or cells: Sf9 cells (washed membrane fraction, not purified)
T1 sequence (Q9NP80 1-782): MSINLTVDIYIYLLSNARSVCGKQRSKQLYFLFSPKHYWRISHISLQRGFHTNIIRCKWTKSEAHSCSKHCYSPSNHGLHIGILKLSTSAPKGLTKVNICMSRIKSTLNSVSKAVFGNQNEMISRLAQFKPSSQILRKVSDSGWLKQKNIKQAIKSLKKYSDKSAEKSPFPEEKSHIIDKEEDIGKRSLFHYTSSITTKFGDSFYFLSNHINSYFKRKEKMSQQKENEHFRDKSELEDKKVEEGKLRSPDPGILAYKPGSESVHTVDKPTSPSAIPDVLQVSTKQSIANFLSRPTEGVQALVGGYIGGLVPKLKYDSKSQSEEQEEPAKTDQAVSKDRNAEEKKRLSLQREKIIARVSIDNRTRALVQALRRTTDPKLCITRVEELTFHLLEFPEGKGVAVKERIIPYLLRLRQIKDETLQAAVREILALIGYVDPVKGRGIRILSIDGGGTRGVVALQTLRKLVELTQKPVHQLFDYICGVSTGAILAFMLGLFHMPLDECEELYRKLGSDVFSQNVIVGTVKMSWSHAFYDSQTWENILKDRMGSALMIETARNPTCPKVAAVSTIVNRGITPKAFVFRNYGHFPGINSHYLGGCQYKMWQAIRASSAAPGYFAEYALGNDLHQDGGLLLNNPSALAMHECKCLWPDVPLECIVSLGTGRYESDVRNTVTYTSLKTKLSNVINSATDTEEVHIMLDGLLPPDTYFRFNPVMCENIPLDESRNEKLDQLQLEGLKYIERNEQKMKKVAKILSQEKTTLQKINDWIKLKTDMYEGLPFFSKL
Put plainly: Assay of iPLA2γ inhibition by BEL (Sf9 cell membranes, radiolabeled phospholipid substrate). It is filed as biochemical. As to the method: Recombinant iPLA2 Enzymes—Recombinant iPLA2β was expressed and purified from Sf9 cells as previously described (35). Recombinant full-length iPLA2γ was expressed in Sf9 cells and the membrane fraction was washed and isolated as previously described (24).
Assay of iPLA2β and iPLA2γ Inhibition by BEL—Purified recombinant iPLA2β or Sf9 cell membranes containing recombinant iPLA2γ were incubated with (R) BEL, (S) BEL, racemic BEL, or ethanol vehicle for 3 mm at 22° C. in the presence of 100 mM Tris-HCl (pH 7.0) and 4 mM EGTA (for iPLA2β) or 100 mM Tris-acetate (pH 8.0) and 4 mM EGTA (for iPLA2γ). The concentration of BEL used for each test ranged from 0 to 16 μM. L-α-1-palmitoyl-2-[1^14C]-arachidonyl-phosphatidylcholine (5 μM final concentration) or L-α-1-palmitoyl-2-[1-^14C]-oleoyl-phosphatidylcholine (5 μM final concentration) in ethanol was then added to each sample and incubated at 37° C. for 2 min. Reactions were terminated by extraction of radiolabeled products into butanol, and reactants and products were separated by thin layer chromatography using Whatman LK6D 60 Å Silica Gel plates with petroleum ether/ethyl ether/acetic acid (70:30:1) as the mobile phase. Regions corresponding to the migration of a fatty acid standard visualized by iodine staining were scraped into vials and radioactivity was quantified by scintillation spectrometry.
Panel A—Purified recombinant iPLA2β (1 μg/ml) in 100 mM Tris-HCl, pH 7.3 containing 1 mM EGTA was preincubated at 22° C. for 3 mm in the presence of the indicated concentrations of (R)-, (S)-, or rac-BEL or ethanol vehicle alone (1% final concentration). Radiolabeled substrate (L-α-1-palmitoyl-2-[1-^14C]-arachidonyl-phosphatidylcholine, 5 μM final concentration) was then added to each reaction and incubated at 37° C. for 2 min. Reactions were terminated by extraction of remaining substrate and products into butanol, separation by TLC, and quantification of released radiolabeled fatty acid by scintillation spectrometry as described in Experimental Procedures. Results are representative of four separate tests. Panel B—Washed Sf9 cell membranes containing recombinant human iPLA2γ were preincubated for 3 min with the indicated concentrations of (R)-, (S)-, or racemic BEL or ethanol vehicle alone (1% final concentration) in 100 mM Tris-acetate, pH 8.0 containing 1 mM EGTA at 22° C. Radiolabeled substrate (L-α-1-palmitoyl-2-[1-^14C]-oleoyl-phosphatidylcholine, 5 μM final concentration) was then added to each reaction and incubated at 37° C. for 2 min. Reactions were terminated by extraction of remaining substrate and products into butanol, separation by TLC, and quantification of released radiolabeled fatty acid by scintillation spectrometry as described in “Experimental Procedures”. Results are representative of four separate tests.

Test [1] deals with MAPK (ERK2) phosphorylation. Put plainly: AVP-induced MAPK phosphorylation in A-10 cells (Western). The test is classed as cell-based, rat. The conditions noted are these: 5 μM, 15 min, 1 μM AVP; FIG. 9.

One may read the IC50 as the concentration at which inhibition is half-maximal. With `O=C1OC(=CBr)CCC1c1cccc2ccccc12` (racemic) [rac-BEL, Racemic (E)-6-(bromomethylene)-3-(1-naphthalenyl)-2H-tetrahydropyran-2-one], the “inhibitory potency on iPLA2γ relative to the enantiomers” value at recombinant human iPLA2γ (FIG. 4B) is “intermediate of that of (R)-BEL and (S)-BEL”. In addition, on recombinant human iPLA2γ (read-out: IC50 for iPLA2γ (range stated jointly for iPLA2β and iPLA2γ)), the IC50 fell in the range of 500 to 3000 nM. In addition, in test [1], the “AVP-induced phosphorylation of ERK2” value is “not effected”.
On to `O=C1O/C(=C/Br)CC[C@@H]1c1cccc2ccccc12` [(R)-BEL, (R)(E)-6-(bromomethylene)-3-(1-naphthalenyl)-2H-tetrahydropyran-2-one], for which the “selectivity for inhibition of iPLA2γ” value at recombinant human iPLA2γ is recorded as 10 fold. The “inhibition of iPLA2γ, fold more potent than (S)-BEL” value at recombinant human iPLA2γ (3 min preincubation, FIG. 4B) is “approximately 10 fold”. The “selectivity for iPLA2γ than iPLA2β” value at recombinant human iPLA2γ (in words) was “approximately an order of magnitude more selective”. Moreover, the “AVP-induced phosphorylation of ERK2” value in test [1] is “not effected”.
